Reference: patent US12187723B2 (BRISTOL-MYERS SQUIBB COMPANY, priority 2019, dated 2025)

Tests used:
[1] = biological target: T1, human TLR8 (Homo sapiens, UniProt Q9NR97); test: TLR8 inhibition reporter assay (HEK-Blue SEAP); assay type: cell-based; conditions: HEK-Blue cells overexpressing human TLR8, R848 15.9 μM, 22 hour incubation
T1 construct: host or cells: HEK-Blue cells
T1 sequence (Q9NR97 27-1041): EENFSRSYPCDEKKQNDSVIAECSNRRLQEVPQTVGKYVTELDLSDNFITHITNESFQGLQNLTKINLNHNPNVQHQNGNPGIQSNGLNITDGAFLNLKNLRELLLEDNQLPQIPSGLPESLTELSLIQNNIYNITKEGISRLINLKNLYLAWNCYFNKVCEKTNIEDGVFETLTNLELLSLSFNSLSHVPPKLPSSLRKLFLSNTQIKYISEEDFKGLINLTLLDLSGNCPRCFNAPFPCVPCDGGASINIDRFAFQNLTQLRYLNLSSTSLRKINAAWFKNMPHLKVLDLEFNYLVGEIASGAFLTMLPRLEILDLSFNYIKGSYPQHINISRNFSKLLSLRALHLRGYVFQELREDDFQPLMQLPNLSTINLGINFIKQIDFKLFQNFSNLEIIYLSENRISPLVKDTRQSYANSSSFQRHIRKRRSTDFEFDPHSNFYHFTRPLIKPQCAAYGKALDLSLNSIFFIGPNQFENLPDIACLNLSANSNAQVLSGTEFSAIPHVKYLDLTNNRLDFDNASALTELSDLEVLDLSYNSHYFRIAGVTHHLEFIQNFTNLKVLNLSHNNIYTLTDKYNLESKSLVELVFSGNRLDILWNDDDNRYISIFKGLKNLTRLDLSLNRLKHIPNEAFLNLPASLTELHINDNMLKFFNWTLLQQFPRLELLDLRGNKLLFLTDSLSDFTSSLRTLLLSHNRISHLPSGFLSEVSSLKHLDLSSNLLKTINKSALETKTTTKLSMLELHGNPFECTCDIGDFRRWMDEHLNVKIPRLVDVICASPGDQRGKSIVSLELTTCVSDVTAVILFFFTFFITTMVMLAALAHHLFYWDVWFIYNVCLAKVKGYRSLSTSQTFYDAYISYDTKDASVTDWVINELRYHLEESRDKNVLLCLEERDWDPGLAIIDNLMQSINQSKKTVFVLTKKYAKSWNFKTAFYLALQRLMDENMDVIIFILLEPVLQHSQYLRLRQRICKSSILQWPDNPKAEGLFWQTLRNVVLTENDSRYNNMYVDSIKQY
Method in brief: (§1)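 HEK-Blue cells overexpressing human TLR7, TLR8 or TLR9 carry a SEAP reporter driven by NF-κB/AP-1 sites. Compounds (0.05 nM–50 μM) were preincubated 30 min at room temperature, then cells were stimulated with gardiquimod 7.5 μM (TLR7), R848 15.9 μM (TLR8) or ODN2006 5 nM (TLR9) for 22 h at 37 °C.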

[2] = biological target: T2, human TLR9 (Homo sapiens, UniProt Q9NR96); test: TLR9 inhibition reporter assay (HEK-Blue SEAP); assay type: cell-based; conditions: HEK-Blue cells overexpressing human TLR9, ODN2006 5 nM, 22 hour incubation
T2 construct: host or cells: HEK-Blue cells
T2 sequence (Q9NR96 26-1032): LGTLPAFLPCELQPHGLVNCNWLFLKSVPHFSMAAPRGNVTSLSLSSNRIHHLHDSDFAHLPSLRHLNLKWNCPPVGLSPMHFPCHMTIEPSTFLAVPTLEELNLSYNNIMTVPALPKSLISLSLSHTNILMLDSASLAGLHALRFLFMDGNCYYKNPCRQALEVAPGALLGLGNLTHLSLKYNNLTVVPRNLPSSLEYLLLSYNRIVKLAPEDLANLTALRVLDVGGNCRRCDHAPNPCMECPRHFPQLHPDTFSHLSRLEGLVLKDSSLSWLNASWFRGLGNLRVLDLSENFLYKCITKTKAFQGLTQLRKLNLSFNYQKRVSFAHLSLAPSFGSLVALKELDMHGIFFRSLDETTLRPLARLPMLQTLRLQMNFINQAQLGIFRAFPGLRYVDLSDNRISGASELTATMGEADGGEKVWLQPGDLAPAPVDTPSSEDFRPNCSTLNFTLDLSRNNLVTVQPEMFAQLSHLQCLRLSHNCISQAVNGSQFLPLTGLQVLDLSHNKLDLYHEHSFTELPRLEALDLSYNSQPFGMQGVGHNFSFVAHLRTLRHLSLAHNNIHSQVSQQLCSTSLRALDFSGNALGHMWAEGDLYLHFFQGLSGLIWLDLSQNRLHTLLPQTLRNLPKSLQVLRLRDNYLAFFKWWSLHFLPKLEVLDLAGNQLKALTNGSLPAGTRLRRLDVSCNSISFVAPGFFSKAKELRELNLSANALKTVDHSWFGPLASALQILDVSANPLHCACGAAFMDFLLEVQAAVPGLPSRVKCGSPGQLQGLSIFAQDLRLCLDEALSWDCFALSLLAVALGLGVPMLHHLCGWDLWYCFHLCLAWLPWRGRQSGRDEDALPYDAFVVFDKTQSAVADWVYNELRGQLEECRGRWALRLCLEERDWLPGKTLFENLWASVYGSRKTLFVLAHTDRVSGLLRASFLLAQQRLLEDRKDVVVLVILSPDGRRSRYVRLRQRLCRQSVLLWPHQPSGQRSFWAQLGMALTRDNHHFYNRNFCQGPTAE
Method in brief: as §1

SMILES | IC50 [1] | IC50 [2]
COc1cc(-c2ccc3c(c2)[nH]c(=O)n3C2CCN(C3COC3)CC2)cn2ncnc12 [Example 80, 5-(8-methoxy-[1,2,4]triazolo[1,5-a]pyridin-6-yl)-1-(1-(oxetan-3-yl)piperidin-4-yl)-1,3-dihydro-2H-benzo[d]imidazol-2-one] | > 3130 nM | 39600 nM
COc1cc(-c2cc3[nH]c(=O)n([C@@H]4CCCN(CC(C)(C)C)C4)c3cc2C)cn2ncnc12 [Example 71, (R)-5-(8-methoxy-[1,2,4]triazolo[1,5-a]pyridin-6-yl)-6-methyl-1-(1-neopentylpiperidin-3-yl)-1,3-dihydro-2H-benzo[d]imidazol-2-one] | 147 nM | 29000 nM
Cc1cc2c(cc1-c1cc(C)c3ncnn3c1)[nH]c(=O)n2[C@@H]1CCCN(CC2CCOC2)C1 (stereo partly drawn) [Example 43, 6-methyl-5-(8-methyl-[1,2,4]triazolo[1,5-a]pyridin-6-yl)-1-((3R)-1-((tetrahydrofuran-3-yl)methyl)piperidin-3-yl)-1,3-dihydro-2H-benzo[d]imidazol-2-one] | 57.7 nM | 16500 nM
Cc1cc2c(cc1-c1cc(C)c3ncnn3c1)[nH]c(=O)n2C1CCN(CC(=O)N(C)C)CC1 [Example 91, N,N-dimethyl-2-(4-(6-methyl-5-(8-methyl-[1,2,4]triazolo[1,5-a]pyridin-6-yl)-2-oxo-2,3-dihydro-1H-benzo[d]imidazol-1-yl)piperidin-1-yl)acetamide] | > 3130 nM | > 50000 nM
Cc1cc2c(cc1-c1cc(C)c3ncnn3c1)[nH]c(=O)n2[C@H]1CCCN(CC(N)=O)C1 [Example 92, (S)-2-(3-(6-methyl-5-(8-methyl-[1,2,4]triazolo[1,5-a]pyridin-6-yl)-2-oxo-2,3-dihydro-1H-benzo[d]imidazol-1-yl)piperidin-1-yl)acetamide] | 177 nM | 21100 nM
COc1cc(-c2ccc3c(c2)[nH]c(=O)n3C2CCN(C(C)C)CC2)cn2ncnc12 [Example 77, 1-(1-isopropylpiperidin-4-yl)-5-(8-methoxy-[1,2,4]triazolo[1,5-a]pyridin-6-yl)-1,3-dihydro-2H-benzo[d]imidazol-2-one] | > 3130 nM | 417 nM
Cc1cc2c(cc1-c1cc(C)c3ncnn3c1)[nH]c(=O)n2[C@@H]1CCCN(CCCC(F)(F)F)C1 [Example 39, (R)-6-methyl-5-(8-methyl-[1,2,4]triazolo[1,5-a]pyridin-6-yl)-1-(1-(4,4,4-trifluorobutyl)piperidin-3-yl)-1,3-dihydro-2H-benzo[d]imidazol-2-one] | 49.3 nM | 10600 nM
Cc1cc2c(cc1-c1cc(C)c3ncnn3c1)[nH]c(=O)n2C1CCN(C(C)C)CC1 [Example 2, 1-(1-isopropylpiperidin-4-yl)-6-methyl-5-(8-methyl-[1,2,4]triazolo[1,5-a]pyridin-6-yl)-1,3-dihydro-2H-benzo[d]imidazol-2-one] | 107 nM | 5560 nM
Cc1cc(-c2ccc3c(c2)[nH]c(=O)n3C2CCN(CC(=O)N(C)C)CC2)cn2ncnc12 [Example 90, N,N-dimethyl-2-(4-(5-(8-methyl-[1,2,4]triazolo[1,5-a]pyridin-6-yl)-2-oxo-2,3-dihydro-1H-benzo[d]imidazol-1-yl)piperidin-1-yl)acetamide] | > 3130 nM | 14600 nM
COc1cc(-c2cc3[nH]c(=O)n(C4CCN(C)CC4)c3cc2C)cn2ncnc12 [Example 1, 5-(8-methoxy-[1,2,4]triazolo[1,5-a]pyridin-6-yl)-6-methyl-1-(1-methylpiperidin-4-yl)-1,3-dihydro-2H-benzo[d]imidazol-2-one] | 54.1 nM | 278 nM

Continued by falling IC50 [1], values first:

IC50 [1] | IC50 [2] | SMILES
49 nM | 4720 nM | Cc1cc2c(cc1-c1cc(C)c3ncnn3c1)[nH]c(=O)n2[C@@H]1CCCN(CCC(C)(C)C)C1 [Example 44, (R)-1-(1-(3,3-dimethylbutyl)piperidin-3-yl)-6-methyl-5-(8-methyl-[1,2,4]triazolo[1,5-a]pyridin-6-yl)-1,3-dihydro-2H-benzo[d]imidazol-2-one]
42.4 nM | 7670 nM | Cc1cc2c(cc1-c1cc(C)c3ncnn3c1)[nH]c(=O)n2[C@@H]1CCCN(Cc2cccnc2)C1 [Example 46, (R)-6-methyl-5-(8-methyl-[1,2,4]triazolo[1,5-a]pyridin-6-yl)-1-(1-(pyridin-3-ylmethyl)piperidin-3-yl)-1,3-dihydro-2H-benzo[d]imidazol-2-one]
37.5 nM | 30600 nM | COc1ncc(CN2CCC[C@H](n3c(=O)[nH]c4cc(-c5cc(C)c6ncnn6c5)c(C)cc43)C2)cn1 [Example 36, (S)-1-(1-((2-methoxypyrimidin-5-yl)methyl)piperidin-3-yl)-6-methyl-5-(8-methyl-[1,2,4]triazolo[1,5-a]pyridin-6-yl)-1,3-dihydro-2H-benzo[d]imidazol-2-one]
28.7 nM | 10100 nM | Cc1cc2c(cc1-c1cc(C)c3ncnn3c1)[nH]c(=O)n2[C@@H]1CCCN(CC2CC2)C1 [Example 37, (R)-1-(1-(cyclopropylmethyl)piperidin-3-yl)-6-methyl-5-(8-methyl-[1,2,4]triazolo[1,5-a]pyridin-6-yl)-1,3-dihydro-2H-benzo[d]imidazol-2-one]
19.6 nM | 6470 nM | Cc1cc2c(cc1-c1cc(C)c3ncnn3c1)[nH]c(=O)n2[C@@H]1CCCN(CC(C)C)C1 [Example 40, (R)-1-(1-isobutylpiperidin-3-yl)-6-methyl-5-(8-methyl-[1,2,4]triazolo[1,5-a]pyridin-6-yl)-1,3-dihydro-2H-benzo[d]imidazol-2-one]
5.74 nM | 6540 nM | COc1cc(-c2cc3[nH]c(=O)n([C@H]4CC[C@@H](NCC5CC5)CC4)c3cc2C)cn2ncnc12 [Example 60, 1-((1s,4s)-4-((cyclopropylmethyl)amino)cyclohexyl)-5-(8-methoxy-[1,2,4]triazolo[1,5-a]pyridin-6-yl)-6-methyl-1,3-dihydro-2H-benzo[d]imidazol-2-one]
5.33 nM | 3770 nM | COc1cc(-c2cc3[nH]c(=O)n([C@H]4CC[C@@H](N(C)C)CC4)c3cc2C)cn2ncnc12 [Example 48, 1-((1s,4s)-4-(dimethylamino)cyclohexyl)-5-(8-methoxy-[1,2,4]triazolo[1,5-a]pyridin-6-yl)-6-methyl-1,3-dihydro-2H-benzo[d]imidazol-2-one]
0.66 nM | 2050 nM | COc1cc(-c2cc3[nH]c(=O)n([C@H]4CC[C@@H](NCC5CCCCC5)CC4)c3cc2C)cn2ncnc12 [Example 66, 1-((1s,4s)-4-((cyclohexylmethyl)amino)cyclohexyl)-5-(8-methoxy-[1,2,4]triazolo[1,5-a]pyridin-6-yl)-6-methyl-1,3-dihydro-2H-benzo[d]imidazol-2-one]
